# Numbered stars: 1 amine (or outer) side, 2 acyl side, 3 side chain; on linkers, the order of the positions; unused ones are H or OH. Square brackets hold non-standard residues; d marks the D form. Peptide text beside a SMILES is read from it. * marks the point of attachment. ξ: configuration not given here. ξAbu(4,4-F2)ψ(COCO) = O=C(C(=O)[*:2])C(CC(F)F)N[*:1]; Dip = N[C@H](C(=O)O)C(c1ccccc1)c1ccccc1; X6 = O=C(NS(=O)(=O)c1ccccc1)C(CC(F)F)N*; X5 = O=C(c1nc2ccccc2s1)C(CC(F)F)N*; X8 = O=C(c1nc2ccccc2o1)C(CC(F)F)N*; X1 = O=C(c1ncc[nH]1)C(CC(F)F)N*; ξAla(CF3) = NC(CC(F)(F)F)C(=O)O; Cha = N[C@@H](CC1CCCCC1)C(=O)O; Ile(3ξ) = CCC(C)[C@H](N)C(=O)O; X3 = O=C(C(CC(F)F)N[*:1])[*:2]; Suc = O=C(CCC(=O)[*:2])[*:1]; X2 = O=C(c1ccco1)C(CC(F)F)N*; X4 = COC(=O)C(=O)C(CC(F)F)N*; X7 = O=C(c1nccs1)C(CC(F)F)N*; X9 = O=C(O)CC(CC(F)F)N*; NHBn = c1ccc(CN*)cc1
# Target: T1, HCV NS3 protease (Hepatitis C virus genotype 1b, UniProt P26663)
# T1 construct: an NS3/4A complex comprising the NS3 protease domain
# T1 sequence (P26663 1027-1208, other chains not shown): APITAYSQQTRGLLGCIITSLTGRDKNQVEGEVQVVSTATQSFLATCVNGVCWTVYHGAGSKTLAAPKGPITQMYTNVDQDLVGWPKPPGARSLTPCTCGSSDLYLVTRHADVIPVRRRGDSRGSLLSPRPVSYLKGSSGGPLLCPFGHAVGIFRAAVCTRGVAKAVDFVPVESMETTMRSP
# Experiment: Inhibition of NS3 protease (HPLC cleavage assay, NS3/4A complex with Pep4AK, substrate peptide 4AB)
# Format: biochemical
# Conditions: IC50, Table 1 hexapeptides, cell printed without unit
# Experimental: Buffer solutions containing 80 μM Pep4AK were preincubated for 10 minutes with 10-200 nM protease and reactions were started by addition of substrate. Six duplicate data points at different substrate concentrations were used to calculate kinetic parameters. Incubation times were chosen in order to obtain <7% substrate conversion and reactions were stopped by addition of 40 μl 1% TFA. Cleavage of peptide substrates was determined by HPLC using a Merck-Hitachi chromatograph equipped with an autosampler. 80 μl samples were injected on a Lichrospher C18 reversed phase cartridge column (4×74 mm, 5 μm, Merck) and fragments were separated using a 10-40% acetonitrile gradient a 5%/min using a flow rate of 2.5 ml/min. Peak detection was accomplished by monitoring both the absorbance at 220 nm and tyrosine fluorescence (λex=260 nm, λem=305 nm). Cleavage products were quantitated by integration of chromatograms with respect to appropriate standards. Kinetic parameters were calculated from nonlinear least-squares fit of initial rates as a function of substrate concentration with the help of a Kaleidagraph software, assuming Michaelis-Menten kinetics.
# Ki values of peptide inhibitors were calculated from substrate titration experiments performed in the presence of increasing amounts of inhibitor. Experimental data sets were simultaneously fitted to eq.1 using a multicurve fit macro with the help of a Sigmaplot software: V=(VmaxS)/(Km(1+[…])+S); (eq.1)
# Alternatively, Ki values were derived from IC50 values, calculated using a four-parameter logistic function, according to eq.2: IC50−(1+S/Km)Ki (eq.2)
row,Compound,IC50
1,CSCC[C@H](NC(=O)[C@H](CCC(=O)O)NC(=O)[C@H](CC(=O)O)NC(C)=O)C(=O)N[C@@H](CCC(=O)O)C(=O)N[C@@H](CCC(=O)O)C(=O)NC(CC(F)F)C(=O)O (some centres unmarked) [Compound 1a] (Ac-DEMEE[X3]-OH),3000 nM

# Same assay, conditions: Table 1 hexapeptides, cells printed in nM; read-out: IC50
row,Compound,IC50
1,"CC(=O)N[C@@H](CC(=O)O)C(=O)N[C@@H](CCC(=O)O)C(=O)N[C@H](C(=O)N[C@@H](CCC(=O)O)C(=O)N[C@@H](CC1CCCCC1)C(=O)NC(CC(F)F)C(=O)C(=O)O)C(c1ccccc1)c1ccccc1 (some centres unmarked) [Compound 1d] (Ac-DE[Dip]E[Cha]-{ξAbu(4,4-F2)ψ(COCO)})",0.4 nM
2,"CC(=O)N[C@@H](CC(=O)O)C(=O)N[C@@H](CCC(=O)O)C(=O)N[C@H](C(=O)N[C@@H](CCC(=O)O)C(=O)N[C@@H](CC1CCCCC1)C(=O)NC(CC(F)F)C(=O)C(=O)NCc1ccccc1)C(c1ccccc1)c1ccccc1 (some centres unmarked) [Compound 1e] (Ac-DE[Dip]E[Cha][ξAbu(4,4-F2)ψ(COCO)]-NHBn)",5 nM
3,COC(=O)C(=O)C(CC(F)F)NC(=O)[C@H](CC1CCCCC1)NC(=O)[C@H](CCC(=O)O)NC(=O)[C@@H](NC(=O)[C@H](CCC(=O)O)NC(=O)[C@H](CC(=O)O)NC(C)=O)C(c1ccccc1)c1ccccc1 (some centres unmarked) [Compound 1f] (Ac-DE[Dip]E[Cha]-X4),800 nM
4,CC(=O)N[C@@H](CC(=O)O)C(=O)N[C@@H](CCC(=O)O)C(=O)N[C@H](C(=O)N[C@@H](CCC(=O)O)C(=O)N[C@@H](CC1CCCCC1)C(=O)NC(CC(F)(F)F)C(=O)O)C(c1ccccc1)c1ccccc1 (some centres unmarked) [Compound 1g] (Ac-DE[Dip]E[Cha][ξAla(CF3)]-OH),100 nM
5,CC(=O)N[C@@H](CC(=O)O)C(=O)N[C@@H](CCC(=O)O)C(=O)N[C@H](C(=O)N[C@@H](CCC(=O)O)C(=O)N[C@@H](CC1CCCCC1)C(=O)NC(CC(F)F)C(=O)c1nc2ccccc2s1)C(c1ccccc1)c1ccccc1 (some centres unmarked) [Compound 1i] (Ac-DE[Dip]E[Cha]-X5),150 nM
6,CC(=O)N[C@@H](CC(=O)O)C(=O)N[C@@H](CCC(=O)O)C(=O)N[C@H](C(=O)N[C@@H](CCC(=O)O)C(=O)N[C@@H](CC1CCCCC1)C(=O)NC(CC(F)F)C(=O)c1nc2ccccc2o1)C(c1ccccc1)c1ccccc1 (some centres unmarked) [Compound 1j] (Ac-DE[Dip]E[Cha]-X8),600 nM
7,CSCC[C@H](NC(=O)[C@H](CCC(=O)O)NC(=O)[C@H](CC(=O)O)NC(C)=O)C(=O)N[C@@H](CCC(=O)O)C(=O)N[C@@H](CCC(=O)O)C(=O)NC(C=O)CC(F)F (some centres unmarked) [Compound 1n] (Ac-DEMEE[X3]-aldehyde),148 nM
8,CCC(C)[C@H](NC(=O)[C@@H](NC(=O)[C@H](CCC(=O)O)NC(=O)CCC(=O)O)C(c1ccccc1)c1ccccc1)C(=O)N[C@@H](CC1CCCCC1)C(=O)NC(CC(F)F)C(=O)NS(=O)(=O)c1ccccc1 (some centres unmarked) [Compound 1o] (Suc-E[Dip][Ile(3ξ)][Cha]-X6),800 nM

# Same assay, conditions: Table 1 hexapeptides, cells printed in μM; read-out: IC50
row,Compound,IC50
1,CC(=O)N[C@@H](CC(=O)O)C(=O)N[C@@H](CCC(=O)O)C(=O)N[C@H](C(=O)N[C@@H](CCC(=O)O)C(=O)N[C@@H](CC1CCCCC1)C(=O)NC(CC(=O)O)CC(F)F)C(c1ccccc1)c1ccccc1 (some centres unmarked) [Compound 1h] (Ac-DE[Dip]E[Cha]-X9),3000 nM
2,CC(=O)N[C@@H](CC(=O)O)C(=O)N[C@@H](CCC(=O)O)C(=O)N[C@H](C(=O)N[C@@H](CCC(=O)O)C(=O)N[C@@H](CC1CCCCC1)C(=O)NC(CC(F)F)C(=O)c1nccs1)C(c1ccccc1)c1ccccc1 (some centres unmarked) [Compound 1k] (Ac-DE[Dip]E[Cha]-X7),1000 nM
3,CC(=O)N[C@@H](CC(=O)O)C(=O)N[C@@H](CCC(=O)O)C(=O)N[C@H](C(=O)N[C@@H](CCC(=O)O)C(=O)N[C@@H](CC1CCCCC1)C(=O)NC(CC(F)F)C(=O)c1ncc[nH]1)C(c1ccccc1)c1ccccc1 (some centres unmarked) [Compound 1l] (Ac-DE[Dip]E[Cha]-X1),6000 nM
4,CC(=O)N[C@@H](CC(=O)O)C(=O)N[C@@H](CCC(=O)O)C(=O)N[C@H](C(=O)N[C@@H](CCC(=O)O)C(=O)N[C@@H](CC1CCCCC1)C(=O)NC(CC(F)F)C(=O)c1ccco1)C(c1ccccc1)c1ccccc1 (some centres unmarked) [Compound 1m] (Ac-DE[Dip]E[Cha]-X2),7000 nM

# Same assay, conditions: Table 2 tetrapeptides and tripeptides; read-out: IC50
row,Compound,IC50
1,CC(=O)N[C@H](C(=O)N[C@@H](CCC(=O)O)C(=O)N[C@@H](CC1CCCCC1)C(=O)NC(CC(F)F)C(=O)C(=O)O)C(c1ccccc1)c1ccccc1 (some centres unmarked) [Compound 2a],10000 nM
2,CC(=O)N[C@H](C(=O)N[C@@H](CCC(=O)O)C(=O)N[C@@H](CC1CCCCC1)C(=O)NC(CC(F)F)C(=O)C(=O)NCc1ccccc1)C(c1ccccc1)c1ccccc1 (some centres unmarked) [Compound 2b],11400 nM
3,CC(=O)N[C@H]1Cc2cccc(c2)Oc2ccc(cc2)C[C@@H](C(=O)NC(CC(F)F)C(=O)C(=O)O)NC(=O)[C@H](CCC(=O)O)NC1=O (some centres unmarked) [Compound 2c],47000 nM
4,CCC(C)[C@H](NC(=O)OCc1ccccc1)C(=O)N[C@H](C(=O)NC(CC(F)F)C(=O)C(=O)O)C(C)C (some centres unmarked) [Compound 3a],16000 nM
5,CCC(C)[C@H](NC(=O)OCc1ccccc1)C(=O)N[C@@H](CC1CCCCC1)C(=O)NC(CC(F)F)C(=O)C(=O)O (some centres unmarked) [Compound 3b],1400 nM
6,CCC(C)[C@H](NC(=O)OCc1ccccc1)C(=O)N[C@@H](CC(C)C)C(=O)NC(CC(F)F)C(=O)C(=O)O (some centres unmarked) [Compound 3c],1400 nM
7,CCC(C)[C@H](NC(=O)OCc1ccccc1)C(=O)N[C@@H](CCC(=O)O)C(=O)NC(CC(F)F)C(=O)C(=O)O (some centres unmarked) [Compound 3d],9300 nM
8,CCC(C)[C@H](NC(=O)OCc1ccccc1)C(=O)N[C@@H](CC)C(=O)NC(CC(F)F)C(=O)C(=O)O (some centres unmarked) [Compound 3e],3000 nM
9,CCC(C)[C@H](NC(=O)OCc1ccccc1)C(=O)N[C@@H](Cc1ccccc1)C(=O)NC(CC(F)F)C(=O)C(=O)O (some centres unmarked) [Compound 3f],3000 nM
10,CCC(C)[C@H](NC(=O)OCc1ccccc1)C(=O)N[C@@H](C)C(=O)NC(CC(F)F)C(=O)C(=O)O (some centres unmarked) [Compound 3g],16000 nM
11,CCC(C)[C@H](NC(=O)NCc1ccccc1)C(=O)N[C@@H](CC(C)C)C(=O)NC(CC(F)F)C(=O)C(=O)O (some centres unmarked) [Compound 4a],6500 nM
12,CCC(C)[C@H](NC(=O)NCc1cc(C(F)(F)F)cc(C(F)(F)F)c1)C(=O)N[C@@H](CC(C)C)C(=O)NC(CC(F)F)C(=O)C(=O)O (some centres unmarked) [Compound 4b],39000 nM
13,CCC(C)[C@H](NC(=O)OCc1ccc(C(=O)OC)cc1)C(=O)N[C@@H](CC(C)C)C(=O)NC(CC(F)F)C(=O)C(=O)O (some centres unmarked) [Compound 4c],1700 nM
14,CCC(C)[C@H](NC(=O)OCc1ccc(C(=O)O)cc1)C(=O)N[C@@H](CC(C)C)C(=O)NC(CC(F)F)C(=O)C(=O)O (some centres unmarked) [Compound 4d],440 nM
15,CCC(C)[C@H](NC(=O)OCC1c2ccccc2-c2ccccc21)C(=O)N[C@@H](CC(C)C)C(=O)NC(CC(F)F)C(=O)C(=O)O (some centres unmarked) [Compound 4e],7800 nM
16,CCC(C)[C@H](NC(=O)OC(C)(C)C)C(=O)N[C@@H](CC(C)C)C(=O)NC(CC(F)F)C(=O)C(=O)O (some centres unmarked) [Compound 4f],1000 nM

# Same assay, conditions: Table 4 indoline keto acids and related; read-out: IC50
row,Compound,IC50
1,"CCC(CC)CC1(C(=O)N[C@@H](CC(C)C)C(=O)NC(CC(F)F)C(=O)C(=O)O)Cc2ccccc2N1 (single isomer, unassigned) [Compound 9g]",15000 nM
2,"CC(C)C[C@H](NC(=O)C1(CC2CC2)Cc2ccccc2N1)C(=O)NC(CC(F)F)C(=O)C(=O)O (single isomer, unassigned) [Compound 9i]",20000 nM
3,"CC(C)C[C@H](NC(=O)C1(Cc2ccccc2Cl)Cc2ccccc2N1)C(=O)NC(CC(F)F)C(=O)C(=O)O (single isomer, unassigned) [Compound 9q]",5000 nM
4,"CC(C)C[C@H](NC(=O)C1(Cc2cccc(C(=O)O)c2)Cc2ccccc2N1)C(=O)NC(CC(F)F)C(=O)C(=O)O (single isomer, unassigned) [Compound 9u]",800 nM
5,"COc1ccc2c(c1)NC(C(=O)N[C@@H](CC(C)C)C(=O)NC(CC(F)F)C(=O)C(=O)O)C2 (single isomer, unassigned) [Compound 10a]",25000 nM
6,"COc1ccc2c(c1)NC(CC(C)C)(C(=O)N[C@@H](CC(C)C)C(=O)NC(CC(F)F)C(=O)C(=O)O)C2 (single isomer, unassigned) [Compound 10b]",24000 nM
7,"CC(C)C[C@H](NC(=O)C1Cc2ccc(OC3CCCC3)cc2N1)C(=O)NC(CC(F)F)C(=O)C(=O)O (single isomer, unassigned) [Compound 10e]",18000 nM
8,"CC(C)C[C@H](NC(=O)C1Cc2ccc(OCC(=O)O)cc2N1)C(=O)NC(CC(F)F)C(=O)C(=O)O (single isomer, unassigned) [Compound 10f]",10000 nM
9,"CC(C)C[C@H](NC(=O)C1Cc2ccc(OC3CCS(=O)(=O)CC3)cc2N1)C(=O)NC(CC(F)F)C(=O)C(=O)O (single isomer, unassigned) [Compound 10i]",30000 nM
10,"CC(C)CC1c2ccccc2NC1C(=O)N[C@@H](CC(C)C)C(=O)NC(CC(F)F)C(=O)C(=O)O (single isomer, unassigned) [Compound 12]",26000 nM
11,"CC(C)C[C@H](NC(=O)c1cc2ccccc2[nH]1)C(=O)NC(CC(F)F)C(=O)C(=O)O (single isomer, unassigned) [Compound 13]",70000 nM
12,"CC(C)C[C@H](NC(=O)c1[nH]c2ccccc2c1OC(C(=O)O)c1cccc(Cl)c1)C(=O)NC(CC(F)F)C(=O)C(=O)O (single isomer, unassigned) [Compound 14]",10000 nM
